Legend:
blackgrass = test: Test B pre/postemergence blackgrass; format: in vivo, Alopecurus myosuroides
How it was run: (§1)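 Test chemicals in a non-phytotoxic solvent mixture with surfactant were sprayed preemergence onto planted seeds and postemergence onto plants 2 to 18 cm tall (1- to 4-leaf stage). After twelve to sixteen days in a greenhouse, injury was visually rated against untreated controls from 0 (no effect) to 10 (complete control).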

cocklebur = test: Test B pre/postemergence cocklebur; format: in vivo, Xanthium strumarium
How it was run: as §1

giant foxtail = test: Test B pre/postemergence giant foxtail; format: in vivo, Setaria faberii
How it was run: as §1

morningglory = test: Test B pre/postemergence morningglory; format: in vivo, Ipomoea hederacea
How it was run: as §1

pigweed = test: Test B pre/postemergence pigweed; format: in vivo, Amaranthus retroflexus
How it was run: as §1

rape = test: Test B pre/postemergence rape; format: in vivo, Brassica napus
How it was run: as §1

soybean = test: Test B pre/postemergence soybean; format: in vivo, Glycine max
How it was run: as §1

sugar beet = test: Test B pre/postemergence sugar beet; format: in vivo, Beta vulgaris
How it was run: as §1

velvetleaf = test: Test B pre/postemergence velvetleaf; format: in vivo, Abutilon theophrasti
How it was run: as §1

wheat = test: Test B pre/postemergence wheat; format: in vivo, Triticum aestivum
How it was run: as §1

wild oat = test: Test B pre/postemergence wild oat; format: in vivo, Avena fatua
How it was run: as §1

purple nutsedge = test: Test B pre/postemergence purple nutsedge; format: in vivo, Cyperus rotundus
How it was run: as §1

rice = test: Test B flood test rice; format: in vivo, Oryza sativa
How it was run: (§2)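 Read-out is a visual response score from 0 (no effect) to 10 (complete control), assigned by comparison with untreated controls. Treatment was applied at the 2-leaf stage, and plants stayed in the greenhouse for twelve to sixteen days before scoring.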

smallflower flatsedge = test: Test B flood test smallflower flatsedge; format: in vivo, Cyperus difformis
How it was run: as §2

duck salad = test: Test B flood test duck salad; format: in vivo, Heteranthera limosa
How it was run: as §2

bamyardgrass = test: Test B flood test barnyardgrass; format: in vivo, Echinochloa crus-galli
How it was run: as §2

[1] = Postemergence, Rate 62 g/ha, scale 0 to 10, 0 is no effect, 10 is complete control
[2] = Postemergence, Rate 250 g/ha, scale 0 to 10, 0 no effect, 10 complete control
[3] = Preemergence, Rate 62 g/ha, scale 0 to 10 (0 no effect, 10 complete control)
[4] = Preemergence, Rate 125 g/ha, scale 0 to 10 (0 no effect, 10 complete control)
[5] = Preemergence, Rate 250 g/ha, scale of 0 to 10 where 0 is no effect and 10 is complete control
[6] = Preemergence, Rate 500 g/ha, scale 0 (no effect) to 10 (complete control)
[7] = Rate 125 g/ha, Postemergence, scale 0 to 10, 0 no effect, 10 complete control
[8] = Rate 500 g/ha, Postemergence, scale 0 to 10, 0 no effect, 10 complete control
[9] = Rate 62 g/ha, headed Pre-emergence (flood test species), scale 0 to 10 (0 no effect, 10 complete control)
[10] = Rate 125 g/ha, Pre-emergence, flood test species, scale 0 to 10 where 0 is no effect and 10 is complete control
[11] = Rate 250 g/ha, headed Pre-emergence (flood test species), scale 0 to 10 (0 no effect, 10 complete control)
[12] = Rate 500 g/ha, headed Pre-emergence (flood test species), scale 0 to 10 (0 no effect, 10 complete control)

CCN(Cc1ccccc1)C(=O)n1oc(=O)n(-c2ccccc2C)c1=O [Compound 71]
0: Blackgrass plant response rating (blackgrass; [1]) | Blackgrass plant response rating (blackgrass; [2]) | Blackgrass plant response rating (blackgrass; [3]) | Plant response rating, Blackgrass (blackgrass; [4]) | Plant response rating, Blackgrass (blackgrass; [5]) | Blackgrass plant response rating (blackgrass; [6]) | Blackgrass plant response rating (blackgrass; [7]) | Blackgrass plant response rating (blackgrass; [8]) | Cocklebur plant response rating (cocklebur; [1]) | Cocklebur plant response rating (cocklebur; [2]) | Cocklebur plant response rating (cocklebur; [3]) | Plant response rating, Cocklebur (cocklebur; [4]) | Plant response rating, Cocklebur (cocklebur; [5]) | Cocklebur plant response rating (cocklebur; [6]) | Cocklebur plant response rating (cocklebur; [7]) | Cocklebur plant response rating (cocklebur; [8]) | Giant foxtail plant response rating (giant foxtail; [1]) | Giant foxtail plant response rating (giant foxtail; [2]) | Giant foxtail plant response rating (giant foxtail; [3]) | Plant response rating, Giant foxtail (giant foxtail; [4]) | Plant response rating, Giant foxtail (giant foxtail; [5]) | Giant foxtail plant response rating (giant foxtail; [6]) | Giant foxtail plant response rating (giant foxtail; [7]) | Giant foxtail plant response rating (giant foxtail; [8]) | Morningglory plant response rating (morningglory; [1]) | Morningglory plant response rating (morningglory; [2]) | Morningglory plant response rating (morningglory; [3]) | Plant response rating, Morningglory (morningglory; [4]) | Plant response rating, Morningglory (morningglory; [5]) | Morningglory plant response rating (morningglory; [6]) | Morningglory plant response rating (morningglory; [7]) | Morningglory plant response rating (morningglory; [8]) | Redroot pigweed plant response rating (pigweed; [1]) | Redroot pigweed plant response rating (pigweed; [2]) | Redroot pigweed plant response rating (pigweed; [3]) | Plant response rating, Redroot pigweed (pigweed; [4]) | Plant response rating, Redroot pigweed (pigweed; [5]) | Redroot pigweed plant response rating (pigweed; [6]) | Redroot pigweed plant response rating (pigweed; [7]) | Redroot pigweed plant response rating (pigweed; [8]) | Rape plant response rating (rape; [1]) | Rape plant response rating (rape; [2]) | Rape plant response rating (rape; [3]) | Plant response rating, Rape (rape; [4]) | Plant response rating, Rape (rape; [5]) | Rape plant response rating (rape; [6]) | Rape plant response rating (rape; [7]) | Rape plant response rating (rape; [8]) | Soybean plant response rating (soybean; [1]) | Soybean plant response rating (soybean; [2]) | Soybean plant response rating (soybean; [3]) | Plant response rating, Soybean (soybean; [4]) | Plant response rating, Soybean (soybean; [5]) | Soybean plant response rating (soybean; [6]) | Soybean plant response rating (soybean; [7]) | Soybean plant response rating (soybean; [8]) | Sugarbeets plant response rating (sugar beet; [1]) | Sugarbeets plant response rating (sugar beet; [2]) | Sugarbeets plant response rating (sugar beet; [3]) | Plant response rating, Sugarbeets (sugar beet; [4]) | Plant response rating, Sugarbeets (sugar beet; [5]) | Sugarbeets plant response rating (sugar beet; [6]) | Sugarbeets plant response rating (sugar beet; [7]) | Sugarbeets plant response rating (sugar beet; [8]) | Velvetleaf plant response rating (velvetleaf; [1]) | Velvetleaf plant response rating (velvetleaf; [2]) | Velvetleaf plant response rating (velvetleaf; [3]) | Plant response rating, Velvetleaf (velvetleaf; [4]) | Plant response rating, Velvetleaf (velvetleaf; [5]) | Velvetleaf plant response rating (velvetleaf; [6]) | Velvetleaf plant response rating (velvetleaf; [7]) | Velvetleaf plant response rating (velvetleaf; [8]) | Wheat plant response rating (wheat; [1]) | Wheat plant response rating (wheat; [2]) | Wheat plant response rating (wheat; [3]) | Plant response rating, Wheat (wheat; [4]) | Plant response rating, Wheat (wheat; [5]) | Wheat plant response rating (wheat; [6]) | Wheat plant response rating (wheat; [7]) | Wheat plant response rating (wheat; [8]) | Wild oats plant response rating (wild oat; [1]) | Wild oats plant response rating (wild oat; [2]) | Wild oats plant response rating (wild oat; [3]) | Plant response rating, Wild oats (wild oat; [4]) | Plant response rating, Wild oats (wild oat; [5]) | Wild oats plant response rating (wild oat; [6]) | Wild oats plant response rating (wild oat; [7]) | Wild oats plant response rating (wild oat; [8]) | Nutsedge plant response rating (purple nutsedge; [1]) | Nutsedge plant response rating (purple nutsedge; [2]) | Nutsedge plant response rating (purple nutsedge; [3]) | Plant response rating, Nutsedge (purple nutsedge; [4]) | Plant response rating, Nutsedge (purple nutsedge; [5]) | Nutsedge plant response rating (purple nutsedge; [6]) | Nutsedge plant response rating (purple nutsedge; [7]) | Nutsedge plant response rating (purple nutsedge; [8]) | Rice plant response rating (rice; [9]) | Rice plant response rating (rice; [10]) | Rice plant response rating (rice; [11]) | Plant response rating, Rice (rice; [12]) | S. Flatsedge plant response rating (smallflower flatsedge; [9]) | S. Flatsedge plant response rating (smallflower flatsedge; [10]) | S. Flatsedge plant response rating (smallflower flatsedge; [11]) | Plant response rating, S. Flatsedge (smallflower flatsedge; [12]) | Ducksalad plant response rating (duck salad; [9]) | Ducksalad plant response rating (duck salad; [10]) | Ducksalad plant response rating (duck salad; [11]) | Plant response rating, Ducksalad (duck salad; [12]) | Barnyardgrass plant response rating (bamyardgrass; [9]) | Barnyardgrass plant response rating (bamyardgrass; [10]) | Barnyardgrass plant response rating (bamyardgrass; [11]) | Plant response rating, Barnyardgrass (bamyardgrass; [12])
